{"source": "patent US5504116A", "about": "(Research Foundation of State University of New York, priority 1994, dated 1996)", "key": {"[1]": {"molecular_target": "T1, voltage-gated calcium channel (ICa) of uterine myocytes (Rattus norvegicus, UniProt P22002)", "T1 construct": "Individual myocytes were freshly isolated from 14 to 21-day pregnant uteri; endogenous in cells; host or cells: freshly dissociated longitudinal myometrial myocytes of 14 to 21-day pregnant Sprague-Dawley rats", "T1 sequence (P22002 whole entry)": "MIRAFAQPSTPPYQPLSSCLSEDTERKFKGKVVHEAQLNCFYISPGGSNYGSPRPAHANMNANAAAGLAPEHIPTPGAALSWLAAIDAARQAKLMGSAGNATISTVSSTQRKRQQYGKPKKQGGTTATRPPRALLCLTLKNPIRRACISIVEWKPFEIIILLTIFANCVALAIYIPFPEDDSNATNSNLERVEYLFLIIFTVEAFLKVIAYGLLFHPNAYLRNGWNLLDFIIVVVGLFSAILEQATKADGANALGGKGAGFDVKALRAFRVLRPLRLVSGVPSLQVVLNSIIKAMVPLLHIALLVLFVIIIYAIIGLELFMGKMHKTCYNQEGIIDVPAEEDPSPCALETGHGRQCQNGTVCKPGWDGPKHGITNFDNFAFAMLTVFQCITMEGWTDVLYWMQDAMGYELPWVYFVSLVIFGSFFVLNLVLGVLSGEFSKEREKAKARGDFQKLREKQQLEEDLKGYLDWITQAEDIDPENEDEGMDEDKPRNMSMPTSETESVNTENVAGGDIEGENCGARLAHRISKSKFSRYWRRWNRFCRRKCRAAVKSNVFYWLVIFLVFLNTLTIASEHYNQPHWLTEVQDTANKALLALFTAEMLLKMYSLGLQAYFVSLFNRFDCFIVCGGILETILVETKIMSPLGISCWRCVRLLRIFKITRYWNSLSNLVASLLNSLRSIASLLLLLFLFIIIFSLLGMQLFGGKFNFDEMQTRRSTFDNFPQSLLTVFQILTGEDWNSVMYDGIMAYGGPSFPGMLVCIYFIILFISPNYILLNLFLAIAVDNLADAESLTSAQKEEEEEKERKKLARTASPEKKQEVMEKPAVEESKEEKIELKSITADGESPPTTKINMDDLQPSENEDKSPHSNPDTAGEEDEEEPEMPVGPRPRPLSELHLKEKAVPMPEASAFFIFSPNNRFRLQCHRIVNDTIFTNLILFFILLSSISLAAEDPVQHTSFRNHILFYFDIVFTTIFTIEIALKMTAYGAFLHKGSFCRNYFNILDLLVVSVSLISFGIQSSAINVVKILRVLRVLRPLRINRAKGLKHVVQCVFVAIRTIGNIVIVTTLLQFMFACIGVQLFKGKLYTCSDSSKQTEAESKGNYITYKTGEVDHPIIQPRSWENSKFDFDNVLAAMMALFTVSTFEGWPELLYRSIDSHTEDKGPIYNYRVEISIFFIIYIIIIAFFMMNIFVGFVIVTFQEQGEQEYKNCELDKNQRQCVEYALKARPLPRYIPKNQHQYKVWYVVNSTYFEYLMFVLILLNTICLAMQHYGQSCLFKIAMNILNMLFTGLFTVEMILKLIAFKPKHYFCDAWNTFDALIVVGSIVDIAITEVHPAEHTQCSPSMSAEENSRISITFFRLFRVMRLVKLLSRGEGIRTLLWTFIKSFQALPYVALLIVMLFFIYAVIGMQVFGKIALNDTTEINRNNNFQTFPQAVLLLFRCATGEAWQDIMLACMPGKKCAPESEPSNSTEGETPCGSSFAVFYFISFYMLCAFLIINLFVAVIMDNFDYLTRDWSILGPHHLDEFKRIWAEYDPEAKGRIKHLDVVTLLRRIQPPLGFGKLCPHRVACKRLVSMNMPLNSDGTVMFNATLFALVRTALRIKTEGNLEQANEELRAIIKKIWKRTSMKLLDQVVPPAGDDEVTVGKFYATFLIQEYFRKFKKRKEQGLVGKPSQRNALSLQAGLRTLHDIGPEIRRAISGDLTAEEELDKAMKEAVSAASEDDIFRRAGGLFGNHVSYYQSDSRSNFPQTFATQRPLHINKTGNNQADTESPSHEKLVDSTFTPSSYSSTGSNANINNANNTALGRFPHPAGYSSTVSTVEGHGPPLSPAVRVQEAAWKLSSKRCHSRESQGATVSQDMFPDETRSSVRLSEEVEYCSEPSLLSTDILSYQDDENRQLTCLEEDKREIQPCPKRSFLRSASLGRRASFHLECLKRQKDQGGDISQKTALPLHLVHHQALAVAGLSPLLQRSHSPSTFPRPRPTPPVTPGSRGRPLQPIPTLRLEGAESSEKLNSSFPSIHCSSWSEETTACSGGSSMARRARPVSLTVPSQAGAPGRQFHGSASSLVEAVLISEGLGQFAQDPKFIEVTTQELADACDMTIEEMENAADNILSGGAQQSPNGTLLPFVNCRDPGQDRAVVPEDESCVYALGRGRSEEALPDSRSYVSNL", "T1 sequence (P54290 25-944 partner limits assumed)": "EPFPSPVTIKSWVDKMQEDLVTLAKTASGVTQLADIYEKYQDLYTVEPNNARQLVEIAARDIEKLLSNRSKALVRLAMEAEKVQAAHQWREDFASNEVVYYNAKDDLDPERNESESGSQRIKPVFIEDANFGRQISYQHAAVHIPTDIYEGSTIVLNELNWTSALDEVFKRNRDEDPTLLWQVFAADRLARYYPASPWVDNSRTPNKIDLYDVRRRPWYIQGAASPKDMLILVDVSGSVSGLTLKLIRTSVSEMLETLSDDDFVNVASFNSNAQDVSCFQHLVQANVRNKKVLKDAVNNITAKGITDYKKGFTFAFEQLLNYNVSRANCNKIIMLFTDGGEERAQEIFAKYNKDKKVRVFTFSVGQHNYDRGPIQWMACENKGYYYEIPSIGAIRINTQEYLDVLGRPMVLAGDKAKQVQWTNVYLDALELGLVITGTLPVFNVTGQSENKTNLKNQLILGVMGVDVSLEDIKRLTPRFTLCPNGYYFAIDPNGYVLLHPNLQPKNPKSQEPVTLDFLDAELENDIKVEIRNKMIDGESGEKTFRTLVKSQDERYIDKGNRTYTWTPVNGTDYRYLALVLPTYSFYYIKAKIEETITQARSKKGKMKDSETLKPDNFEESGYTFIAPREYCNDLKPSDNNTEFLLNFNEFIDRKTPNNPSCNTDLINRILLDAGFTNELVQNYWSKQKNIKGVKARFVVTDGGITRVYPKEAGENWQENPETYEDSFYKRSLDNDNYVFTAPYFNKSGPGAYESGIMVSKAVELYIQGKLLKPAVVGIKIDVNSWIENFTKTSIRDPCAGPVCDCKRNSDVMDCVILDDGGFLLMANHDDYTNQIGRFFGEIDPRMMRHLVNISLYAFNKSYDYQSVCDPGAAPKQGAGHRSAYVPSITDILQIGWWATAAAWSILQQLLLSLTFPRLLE", "T1 sequence (P54290 945-1091 partner limits assumed)": "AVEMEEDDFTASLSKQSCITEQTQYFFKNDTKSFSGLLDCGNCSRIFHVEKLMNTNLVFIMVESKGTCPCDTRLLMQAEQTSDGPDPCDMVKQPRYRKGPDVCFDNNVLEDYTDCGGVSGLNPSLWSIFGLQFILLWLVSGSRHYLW", "conditions": "2 μM nisoldipine; cited from earlier work"}, "[2]": {"system": "preterm labor", "conditions": "cited from earlier work"}, "[3]": {"molecular_target": "T1, voltage-gated calcium channel (ICa) of uterine myocytes", "experiment": "whole-cell patch clamp, inward calcium current (ICa) of freshly dissociated pregnant rat uterine myocytes", "type": "cell-based", "description": "Holding potential, -80 mV; depolarized by 35 ms steps from -40 mV in 10 mV increments to 30 mV. […] Traces shown represent inward currents in response to applied voltage commands, outward K^+ currents having been blocked by the use of Cs^+ -filled electrode. […] (E) Current-voltage (I--V) relations of INa in panels (A--D). Symbols correspond to those under current traces. (F) I--V relations of ICa.\nHollow symbols for I'Ca /ICa in same myocytes used for I'Na /INa values. […] P=I'Na /INa.\nAll experiments in this study were performed under institutional guidelines for the care and use of laboratory animals (approval #92-055). Rats (Sprague-Dawley) were mated individually in the inventors' laboratory, and the duration of gestation was timed from the morning of the first discovery of cervical plugs. […] Individual myocytes were freshly isolated from 14 to 21-day pregnant uteri. Details of the methods of isolating the myocytes in a near-physiological condition, and associated patch-clamping can be found in other publications^7,15. Briefly, strips of isolated longitudinal myometrium were incubated in collagenase, and then subjected to mild mechanical disruption, until individual myocytes in desired amounts were obtained. For the work described herein, such single freshly dissociated myocytes were studied in the whole-cell configuration of patch-clamping^9.\nThe bath solution in which the individual myocytes were studied contained (in mM): NaCl, 135; KCl, 5.4; MgCl2, 1; CaCl2, 3; HEPES, 10; and glucose 5. […] The pipette solution contained (in mM): CsCl, 120; EGTA, 1; Na2 ATP, 2; HEPES, 10; K-pyruvate, 5; K-oxaloacetate, 5; and K-succinate, 5. All solutions were adjusted to pH 7.3; all experiments were done at room temperature of ca. 22° C. In the whole-cell mode of recording, rupture of the cell membrane allows access of the pipette solution to the cell interior. The reason for using CsCl rather than KCl is that the Cs^+ effectively blocks outward K^+ currents, and allows the inward currents to be isolated for study. […] The basic properties of the voltage-gated sodium and calcium channels are described in detail in Yoshino et al^7.\nThe inward currents have been isolated by using a pipette solution containing 120 mM Cs^+."}, "[4]": {"system": "K+ channels (outward potassium currents) of uterine myocytes", "experiment": "whole-cell patch clamp, outward potassium currents of late-pregnant rat uterine myocytes", "type": "cell-based"}, "[5]": {"system": "pregnant rats", "experiment": "effect on the duration of pregnancy in rats (intramuscular injections)", "type": "in vivo, rat", "conditions": "for term (duration of gestation): control 22.33±0.16 days, p <0.01"}, "[6]": {"system": "fetuses and newborn rats", "conditions": "rat, in vivo", "source_text": "To avoid possible post-term complications, it was sacrificed."}, "[7]": {"conditions": "dosages used in continuous epidural anesthesia for labor; cited from earlier work"}}, "note": "Entries after “also recorded” stand apart in the source; their conditions may differ.", "data": [{"smiles": "COC(=O)C1=C(C)NC(C)=C(C(=O)OCC(C)C)C1c1ccccc1[N+](=O)[O-]", "note": "(stereo not shown) [nisoldipine]", "values": [{"measurement": "block of Ca2+ current", "setting": "[1]", "result": "blocked"}]}, {"smiles": "CC(NCCc1ccc(O)cc1)C(O)c1ccc(O)cc1", "note": "(stereo not shown) [ritodrine]", "values": [{"measurement": "duration of effectiveness in preterm labor", "setting": "[2]", "result": "effective for only a few days"}, {"measurement": "effect on pregnancy outcome", "setting": "[2]", "result": "does not affect the pregnancy outcome"}, {"measurement": "side-effects", "setting": "[2]", "result": "can produce cardiovascular side-effects in some recipients"}]}, {"smiles": "CCN(CC)CC(=O)Nc1c(C)cccc1C", "note": "[lidocaine]", "values": [{"measurement": "ICa, effect in words", "setting": "[3]; 0.02 mM lidocaine, 5 min (FIG. 3A)", "result": "no detectable difference"}, {"measurement": "ICa, effect in words", "setting": "[3]; 0.1 mM and 0.2 mM lidocaine, 5 min (FIG. 3B, C)", "result": "slight reductions of the tail currents"}, {"measurement": "Ca2+ currents, effect in words", "setting": "[3]; 0.5 mM lidocaine (FIG. 2D)", "result": "reduced slightly"}, {"measurement": "ICa and tail-current, effect in words", "setting": "[3]; 1 mM lidocaine, 3 min (FIG. 2B)", "result": "only slightly reduced"}, {"measurement": "remaining activity at 1000 µM", "setting": "[3]; 0.05 h, read-out: ICa relative to control (pre-lidocaine)", "result": 93, "unit": "%"}, {"measurement": "remaining activity at 500 µM", "setting": "[3]; 0.05 h, read-out: tail ICa remaining relative to recovery state (C)", "result": 78, "unit": "%"}, {"measurement": "effects on myometrial K+ or Ca2+ channels at concentrations blocking sodium channels", "setting": "[3]; Ca2+ channels, uterine myocytes", "result": "no effects"}, {"measurement": "effect on ICa, in words", "setting": "[3]; concentrations of lidocaine up to 0.5 mM (FIG. 4)", "result": "very little effect"}, {"measurement": "effect on coexisting voltage-gated calcium channels, summary in words", "setting": "[3]; summary of the examples", "result": "very little effect"}, {"measurement": "effects on myometrial K+ or Ca2+ channels at concentrations blocking sodium channels", "setting": "[4]; K+ channels, uterine myocytes", "result": "no effects"}, {"measurement": "effect on coexisting potassium channels, summary in words", "setting": "[4]; summary of the examples", "result": "very little effect"}, {"measurement": "effect on outward K+ current", "setting": "[4]; up to 0.5 mM lidocaine, 5 min, late-pregnant uteri (FIG. 1)", "result": "insignificant effects; also recorded: rather minor"}, {"measurement": "day of delivery", "setting": "[5]; 2 mg/kg i.m. twice daily, two rats, both", "result": "delivered on the 23rd day"}, {"measurement": "duration of pregnancy, single rat", "setting": "[5]; 6 mg/kg i.m. twice daily, one rat, sacrificed", "result": "continued into the 26th day"}, {"measurement": "term (duration of gestation)", "setting": "[5]; 2, 4 or 6 mg/kg i.m. twice daily from day-20, 8 rats", "result": "23.63 ± 0.39", "unit": "days"}, {"measurement": "term (duration of gestation)", "setting": "[5]; 4 or 6 mg/kg i.m. twice daily from day-20, 6 rats", "result": "23.83 ± 0.40", "unit": "days"}, {"measurement": "difference in duration of gestation versus control", "setting": "[5]; i.m. lidocaine, 22-day gestation", "result": 1.5, "unit": "days"}, {"measurement": "lengthening of the term / prolongation of gestation", "setting": "[5]; i.m. lidocaine, pregnant rats", "result": 7, "unit": "%"}, {"measurement": "motor activities of fetuses at birth or newborn several hours after birth", "setting": "[6]", "result": "no discernable differences"}, {"measurement": "condition of fetuses at autopsy", "setting": "[6]; 6 mg/kg", "result": "healthy and indistinguishable from those of control newborns, except for their larger sizes"}, {"measurement": "serious side-effects on either the mother or the fetus", "setting": "[7]", "result": "absence of serious side-effects"}]}]}
